Results published in PMC10485906, “Development of a Dihydroquinoline–Pyrazoline GluN2C/2D-Selective Negative Allosteric Modulator of the N-Methyl-D-aspartate Receptor” (ACS Chemical Neuroscience, 2023).

Legend:
Plasma stability, human = assay type: in vitro ADME; details: both sexes; for half-life at 3 μM: human plasma, incubation up to 120 min, read-out: plasma stability T1/2, human; for remaining at 120 min, 3 µM: plasma, over the assay time course
Experimental: Human plasma (lithium heparin (LiHep) mixed, gender pooled, 0.2 μm filtered) and mouse plasma (BALB/C, LiHep mixed, male pooled, 0.2 μm filtered) were purchased from BioIVT. Procaine (Sigma-Aldrich) served as a positive control for both human and mouse plasma experiments. Test compounds and positive controls were initially dissolved in DMSO to make 10 mM stock solutions. The solutions of test and control compounds were then further diluted in 70% MeOH/H2O or 100% MeCN to 500 μM. Next, the human or mouse plasma (994 μL) was aliquoted into 1.5 mL Eppendorf tubes with duplicates (reactions A and B) being prepared for each compound. The plasma was then incubated at 37 °C for 10 min. Afterward, the reaction was initiated by the addition of the test compound (6 μL of 500 μM solution) and further incubated at 37 °C for the designated time course of the study. This procedure provided duplicate experiments with a final volume of 1000 μL (<0.6% organic solvent content) and a final test compound concentration of 3 μM. Aliquots (100 μL) were removed from each reaction mixture at 0, 15, 30, 60, and 120 min time intervals and quenched with 150 μL of cold ISTD solution (2 μM 7-ethoxy-d5-coumarin in MeOH or MeCN). Quenched aliquots were then centrifuged at 15,000 g for 30–45 min, and the resulting supernatants (∼70 μL) were withdrawn and placed in LC-MS vials to be analyzed by LC-MS/MS (Agilent G6460C QQQ MS coupled with an Infinity II 1260 HPLC). Each test compound was run in tandem with positive and negative control experiments for quality assurance. The positive control reaction was conducted at a final volume of 1000 μL for a single run at each time point. Finally, the negative control experiment was conducted with test compounds in DPBS (143 μL) and analyzed at the 120 min time point.
(§1) For both LM and plasma assays, each data point was analyzed in triplicate using between blank washes to avoid carry over and to equilibrate the column for the subsequent runs. Averages of these triplicates for individual compounds at each time point were then normalized to the data at 0 min, representing 100% of the test compound remaining or 0% metabolism. Half-lives (t1/2) were calculated by plotting ln of % test compound remaining versus time and performing linear regression to determine slope. Slope = −k and t1/2 = 0.693/k for first-order kinetics (see Figures S5 and S6 for a representative example).

[1] = Liver microsome stability, mouse; assay type: in vitro ADME; details: CD-1, mouse; for half-life at 3 μM / remaining at 0.5 h, 3 µM: liver microsomes; for half-life at 3 μM: incubation up to 30 min, read-out: liver microsome stability T1/2, mouse; for remaining at 0.5 h, 3 µM: over the assay time course (30 min), read-out: % remaining, mouse LMs; for microsomal CLint at 3 μM: mouse liver microsomes
Experimental: Human liver microsomes (HLMs, 20 mg/mL) and CD-1 mouse liver microsomes (MLMs, 20 mg/mL) were purchased from Xenotech. NADPH was purchased from Sigma-Aldrich and prepared in 10 mM stock solutions of distilled H2O (Invitrogen UltraPure). Verapamil and diphenhydramine were both purchased from Sigma-Aldrich and served as positive controls for HLM and MLM stability, respectively. Test compounds and positive controls were initially dissolved in DMSO to make 10 mM stock solutions. Sample solutions were then further diluted in 70% MeOH/H2O or 100% MeCN to 500 μM. Next, the reactions were prepared by mixing human or mouse liver microsomes (55 μL) with potassium phosphate buffer (100 mM, […]) in 1.5 mL Eppendorf tubes. The test compounds (6.6 μL of 500 μM solution) were subsequently added to the suspensions, and the reaction mixtures were incubated at 37 °C for 5 min. Afterward, the liver microsome reactions were initiated with 110 μL of 10 mM NADPH and further incubated at 37 °C for the designated time course of the study. This procedure provided experiments with a final volume of 1100 μL (<0.6% organic solvent content), a concentration for HLMs and MLMs of 1 mg/mL, and a final test compound concentration of 3 μM. Aliquots (100 μL) were removed from each reaction mixture in duplicate at 0, 5, 10, 15, and 30 min time intervals and quenched with 100 μL of cold internal standard solution (ISTD, 2 μM 7-ethoxy-d5-coumarin in MeOH or MeCN). Quenched aliquots were then centrifuged at 12 500 g for 5–10 min, and the resulting supernatants were withdrawn and placed in LC-MS vials to be analyzed by LC-MS/MS (Agilent G6460C QQQ MS coupled with an Infinity II 1260 HPLC). Each test compound was run in tandem with positive and negative control experiments for quality assurance. Positive control reactions were conducted at a final volume of 550 μL for a single run at each time point. Lastly, the negative control experiment was conducted with test compounds and liver microsomes in the absence of NADPH (150 μL) and analyzed at the 30 min time point.
as §1

half-life at 3 μM (Plasma stability, human) [min]	remaining at 120 min, 3 µM (Plasma stability, human) [%]	half-life at 3 μM [1] [min]	remaining at 0.5 h, 3 µM [1] [%]	microsomal CLint at 3 μM [1] [µL/min/mg]	SMILES
> 120	> 95	> 30	> 95	< 23	O=C(O)CCC(=O)N1N=C(c2c(-c3ccc(Cl)cc3)c3ccccc3[nH]c2=O)CC1c1ccc(Cl)cc1 (stereo not shown) [2a]
> 120	> 95	> 30	> 95	< 23	O=C(O)CC(F)(F)C(=O)N1N=C(c2c(-c3ccc(Cl)cc3)c3ccccc3[nH]c2=O)CC1c1ccc(Cl)cc1 (stereo not shown) [2i]
> 120	–	> 30	> 90	< 23	NC(=O)CC(F)(F)C(=O)N1N=C(c2c(-c3ccc(Cl)cc3)c3ccccc3[nH]c2=O)CC1c1ccc(Cl)cc1 (stereo not shown) [2k]
> 120	–	2.6	–	267	CCOC(=O)CC(F)(F)C(=O)N1N=C(c2c(-c3ccc(Cl)cc3)c3ccccc3[nH]c2=O)CC1c1ccc(Cl)cc1 (stereo not shown) [2l]
> 120	–	2.9	–	239	CC(C)OC(=O)CC(F)(F)C(=O)N1N=C(c2c(-c3ccc(Cl)cc3)c3ccccc3[nH]c2=O)CC1c1ccc(Cl)cc1 (stereo not shown) [2m]
> 120	–	1.8	–	385	O=C(CC(F)(F)C(=O)N1N=C(c2c(-c3ccc(Cl)cc3)c3ccccc3[nH]c2=O)CC1c1ccc(Cl)cc1)OCC1CC1 (stereo not shown) [2n]
> 120	–	4	–	173	CC(C)(C)COC(=O)CC(F)(F)C(=O)N1N=C(c2c(-c3ccc(Cl)cc3)c3ccccc3[nH]c2=O)CC1c1ccc(Cl)cc1 (stereo not shown) [2o]
> 120	–	7.2	–	96	O=C(CC(F)(F)C(=O)N1N=C(c2c(-c3ccc(Cl)cc3)c3ccccc3[nH]c2=O)CC1c1ccc(Cl)cc1)OCc1ccccc1 (stereo not shown) [2p]
> 120	–	≤ 7	–	178	CNC(=O)CC(F)(F)C(=O)N1N=C(c2c(-c3ccc(Cl)cc3)c3ccccc3[nH]c2=O)CC1c1ccc(Cl)cc1 (stereo not shown) [2q]
> 120	–	–	–	231	CN(C)C(=O)CC(F)(F)C(=O)N1N=C(c2c(-c3ccc(Cl)cc3)c3ccccc3[nH]c2=O)CC1c1ccc(Cl)cc1 (stereo not shown) [2r]
